What all share (assay): microbe, parasite or virus in culture
For test [1], the system named is Mycobacterium tuberculosis. The note with it: 336 h.
Test [2] has as its system Mycobacterium tuberculosis. The note with it: MD96.
Test [3] deals with Mycobacterium tuberculosis. The following applies: MD55.
The test system of test [4] is Mycobacterium tuberculosis. The note with it: R296.
Test [5] relates to Mycobacterium tuberculosis. The note with it: R3027.
In test [6] the test system is Mycobacterium tuberculosis. The note with it: R88.

Converted amounts (≈) assume the structure as drawn.

`CS(=O)(=O)NC(=O)NCc1cn(-c2ccc(Cl)cc2)nc1-c1ccncc1` returned an MIC in test [1] of less than 0.12 µM.
Consider `CS(=O)(=O)NC(=O)CCc1cn(-c2ccc(Br)cc2)nc1-c1ccncc1`, for which the MIC in test [2] is not above 30 µM; in test [3], 60 µM (≈ 27 µg/mL); in test [4], 60 µM (≈ 27 µg/mL); in test [5], 60 µM (≈ 27 µg/mL); in test [6], 30 µM (≈ 13.5 µg/mL).
`CS(=O)(=O)NC(=O)NCc1cc(-c2ccc(Br)cc2)oc1-c1ccncc1`: in test [1], the MIC is less than 0.13 µM.
Still for that read-out and setting: next, `CS(=O)(=O)NC(=O)CCc1cn(-c2ccc(Cl)cc2)nc1-c1ccc(Cl)cc1`: 0.24 µM (≈ 0.105 µg/mL); `CS(=O)(=O)NC(=O)CCc1cn(-c2ccc(Br)cc2)nc1-c1ccc(Cl)cc1`: 0.4 µM (≈ 0.193 µg/mL).
Same read-out and setting: to `NNC(=O)c1ccncc1` [ISONIAZID] belongs 31.2 µM (≈ 4.28 µg/mL); to `CO[C@H]1/C=C/O[C@@]2(C)Oc3c(C)c(O)c4c(O)c(c(/C=N/N5CCN(C)CC5)c(O)c4c3C2=O)NC(=O)/C(C)=C\C=C\[C@H](C)[C@H](O)[C@@H](C)[C@@H](O)[C@@H](C)[C@H](OC(C)=O)[C@@H]1C` [RIFAMPIN], 0.001 µM (≈ 0.000823 µg/mL).

For the origin of these results see ChEMBL document CHEMBL4842359, “1,3-Diarylpyrazolyl-acylsulfonamides as Potent Anti-tuberculosis Agents Targeting Cell Wall Biosynthesis in Mycobacterium tuberculosis” (J Med Chem, 2021).
